These results are taken from ChEMBL document CHEMBL3085697, “Design and synthesis of aryl sulfonamide-based nonsteroidal mineralocorticoid receptor antagonists” (Bioorg Med Chem Lett, 2013).

Data set [1] has as its target T1, Mineralocorticoid receptor (Homo sapiens, UniProt P08235).
T1 sequence (P08235 whole entry): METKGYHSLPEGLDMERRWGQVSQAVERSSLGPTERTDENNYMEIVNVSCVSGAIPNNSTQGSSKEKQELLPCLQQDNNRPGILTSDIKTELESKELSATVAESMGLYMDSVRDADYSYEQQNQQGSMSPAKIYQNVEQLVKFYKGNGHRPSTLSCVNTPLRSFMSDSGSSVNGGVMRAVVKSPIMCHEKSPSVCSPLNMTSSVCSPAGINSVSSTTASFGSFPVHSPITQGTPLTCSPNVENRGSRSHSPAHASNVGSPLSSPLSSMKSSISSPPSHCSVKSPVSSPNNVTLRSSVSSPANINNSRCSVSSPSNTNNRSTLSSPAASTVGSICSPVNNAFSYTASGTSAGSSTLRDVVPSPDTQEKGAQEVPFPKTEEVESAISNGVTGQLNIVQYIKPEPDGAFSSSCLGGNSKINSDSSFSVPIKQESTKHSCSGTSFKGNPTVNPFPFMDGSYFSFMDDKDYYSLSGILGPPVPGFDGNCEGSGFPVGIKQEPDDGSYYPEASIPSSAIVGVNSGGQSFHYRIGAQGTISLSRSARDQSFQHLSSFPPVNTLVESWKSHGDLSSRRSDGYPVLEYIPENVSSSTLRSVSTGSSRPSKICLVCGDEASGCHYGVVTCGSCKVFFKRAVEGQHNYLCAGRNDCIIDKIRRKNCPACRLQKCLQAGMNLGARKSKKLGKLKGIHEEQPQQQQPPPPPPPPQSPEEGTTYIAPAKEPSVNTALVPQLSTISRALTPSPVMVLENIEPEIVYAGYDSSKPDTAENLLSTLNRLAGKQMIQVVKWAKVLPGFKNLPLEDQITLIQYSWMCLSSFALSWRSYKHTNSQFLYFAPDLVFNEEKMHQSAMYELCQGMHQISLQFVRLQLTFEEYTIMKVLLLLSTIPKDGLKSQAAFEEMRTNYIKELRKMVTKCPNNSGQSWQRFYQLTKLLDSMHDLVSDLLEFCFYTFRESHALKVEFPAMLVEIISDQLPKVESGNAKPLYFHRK
The data set can be described thus: Displacement of [3H]aldosterone from GST-tagged human mineralocorticoid receptor ligand binding domain after 4 hrs by liquid scintillation counting.

The nature of data set [2]: Lipophilicity, log D of the compound. As to conditions: octanol/water. It counts as physicochemical.
Data set [3] has as its target T1, Mineralocorticoid receptor. The data set is described as follows: Antagonist activity at human mineralocorticoid receptor ligand binding domain expressed in human Huh7 cells after 16 hrs by luciferase reporter gene assay in absence of serum. It counts as cell-based, Huh-7.
The target of data set [4] is CYP2D6 (Homo sapiens, UniProt P10635). The data set is described as follows: Inhibition of CYP2D6 (unknown origin) at 3 uM. It counts as ADME.
For data set [5], the target named is CYP2C9 (Homo sapiens, UniProt P11712). The data set is described as follows: Inhibition of CYP2C9 (unknown origin) at 3 uM. Format: ADME.
For data set [6], the target named is T2, Progesterone receptor (Homo sapiens, UniProt P06401).
T2 sequence (P06401 whole entry): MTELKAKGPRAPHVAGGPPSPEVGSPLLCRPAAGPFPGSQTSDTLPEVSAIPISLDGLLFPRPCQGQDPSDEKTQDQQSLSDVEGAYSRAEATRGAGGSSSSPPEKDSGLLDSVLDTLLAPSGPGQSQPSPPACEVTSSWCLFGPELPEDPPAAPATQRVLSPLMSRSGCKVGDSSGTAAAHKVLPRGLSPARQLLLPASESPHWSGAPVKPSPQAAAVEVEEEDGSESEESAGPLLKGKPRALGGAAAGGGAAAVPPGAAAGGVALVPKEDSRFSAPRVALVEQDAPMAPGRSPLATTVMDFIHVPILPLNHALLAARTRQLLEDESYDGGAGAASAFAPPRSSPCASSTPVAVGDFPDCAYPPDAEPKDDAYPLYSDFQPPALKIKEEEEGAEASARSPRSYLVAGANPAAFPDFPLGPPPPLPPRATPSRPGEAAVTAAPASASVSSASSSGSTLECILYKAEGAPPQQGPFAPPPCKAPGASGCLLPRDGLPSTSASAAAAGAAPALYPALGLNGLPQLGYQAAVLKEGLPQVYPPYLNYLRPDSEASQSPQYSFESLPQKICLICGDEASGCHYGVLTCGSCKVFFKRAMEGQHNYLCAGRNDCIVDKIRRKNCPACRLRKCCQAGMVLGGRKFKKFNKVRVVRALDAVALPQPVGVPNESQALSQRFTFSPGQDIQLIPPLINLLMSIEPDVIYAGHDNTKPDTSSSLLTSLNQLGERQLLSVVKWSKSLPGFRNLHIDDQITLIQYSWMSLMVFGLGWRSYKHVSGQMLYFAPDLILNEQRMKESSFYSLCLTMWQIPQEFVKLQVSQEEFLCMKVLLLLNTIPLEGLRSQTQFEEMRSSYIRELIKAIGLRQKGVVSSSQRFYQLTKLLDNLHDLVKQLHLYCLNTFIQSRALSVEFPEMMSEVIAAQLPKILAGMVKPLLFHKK
The data set is described as follows: Displacement of [3H]progesterone from human His-progesterone receptor B after 4 hrs by liquid scintillation counting.

Data set [7] concerns Hepatocyte. The data set can be described thus: Apparent intrinsic clearance in human hepatocytes assessed per million cells. It counts as ADME, cell-based.

The structures appear in SMILES notation.

CYP2C9, sequence (P11712 whole entry): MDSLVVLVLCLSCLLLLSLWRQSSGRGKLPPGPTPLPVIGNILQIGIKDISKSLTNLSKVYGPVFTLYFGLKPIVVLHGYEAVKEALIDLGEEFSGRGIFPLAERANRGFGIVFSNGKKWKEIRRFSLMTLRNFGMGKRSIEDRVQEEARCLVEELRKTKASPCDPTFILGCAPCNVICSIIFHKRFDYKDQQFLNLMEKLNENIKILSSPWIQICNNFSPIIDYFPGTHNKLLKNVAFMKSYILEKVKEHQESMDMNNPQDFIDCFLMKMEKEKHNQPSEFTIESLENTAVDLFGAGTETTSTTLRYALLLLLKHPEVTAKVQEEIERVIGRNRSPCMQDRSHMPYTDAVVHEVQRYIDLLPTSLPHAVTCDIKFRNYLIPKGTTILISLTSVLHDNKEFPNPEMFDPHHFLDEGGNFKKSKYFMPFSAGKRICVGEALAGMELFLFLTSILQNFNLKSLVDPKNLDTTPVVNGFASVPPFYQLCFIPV
CYP2D6, sequence (P10635 whole entry): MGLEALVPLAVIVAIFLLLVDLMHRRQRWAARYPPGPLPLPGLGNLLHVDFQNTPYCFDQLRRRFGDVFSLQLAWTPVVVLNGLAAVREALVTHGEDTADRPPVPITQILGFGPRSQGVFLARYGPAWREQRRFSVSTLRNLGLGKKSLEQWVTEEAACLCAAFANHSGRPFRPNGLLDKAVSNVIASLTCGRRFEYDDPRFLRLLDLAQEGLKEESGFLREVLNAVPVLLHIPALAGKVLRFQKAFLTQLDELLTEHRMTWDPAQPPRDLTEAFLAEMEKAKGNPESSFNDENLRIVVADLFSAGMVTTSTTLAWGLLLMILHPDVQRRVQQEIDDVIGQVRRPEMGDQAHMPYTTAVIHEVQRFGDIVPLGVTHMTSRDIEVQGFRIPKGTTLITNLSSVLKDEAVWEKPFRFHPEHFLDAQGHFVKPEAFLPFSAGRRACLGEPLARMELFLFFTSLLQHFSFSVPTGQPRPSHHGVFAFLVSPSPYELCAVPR

For `Cc1cn(-c2ccc(CNS(=O)(=O)c3cc(F)ccc3F)cc2)c(C)n1`, the IC50 in data set [1] was 191 nM; in data set [3] it was 556 nM; in data set [6], > 9210 nM. The affinity in data set [1], expressed as Ki, was 113 nM. Besides, the logD in data set [2] amounted to 2.3. Also, the inhibition at 3 µM in data set [4] and in data set [5] was < 5% each time. In addition, in data set [7], the “CLH(app)” value worked out at 9.6 µL/min.
